Experimental data published in patent publication US9816991B2, “Diagnostic peptides for lyme disease” (Biopeptides Corp., priority 2012, dated 2017).

System: human IgG+IgM serum antibodies
Assay: OppA2 peptide ELISA
Type: binding
Settings: for binding of antibodies present in RPR+ serum: 26 RPR+ sera
Procedure: 96-well plates (Nunc Maxisorp) were coated with 10 μg/mL peptide, diluted in 0.1M carbonate-bicarbonate buffer, pH 9.4 (50 μL per well), for 1 hour at room temperature. Blocking buffer 1% bovine serum albumin (BSA) in PBS was added to the wells (250 μL/well) and incubated overnight at 4° C. Wells were washed three times with PBS containing 0.05% Tween 20 (PBS-T) and incubated for 2 hours at room temperature with human samples diluted 1:100 in PBS-1% BSA. Each plate included samples from patients and healthy donors, and all samples were assayed in triplicate. After washing, wells were incubated for 1 hour at RT with a 1:15,000 dilution of HRP-conjugated secondary antibody against human IgG+IgM. Reactions were developed for 30 minutes with 3,3′,5,5′-tetramethylbenzidine (TMB) in the dark at room temperature and the reaction was stopped by the addition of 2N H2SO4. Optical densities were determined at 450 nm and 570 nm wavelengths using a SpectraMax Plus plate reader (Molecular Devices). The cutoff for seropositivity was defined as the mean optical density (OD) of the healthy control samples plus two standard deviations (SD).
OppA2 peptides react specifically with antibodies from Lyme disease patients. The nine peptides were further screened by ELISA using serum or plasma obtained from 104 patients with physician-diagnosed Lyme disease. All patients presented with one or more EM. Control sera was obtained from 45 healthy donors residing in a region of the United States non-endemic for LD, New Mexico. All peptides were incubated with serum in triplicate, and results were validated in two independent experiments. For each peptide, the threshold value for immunoreactivity was defined as the mean optical density (OD) value plus two standard deviations (SD) of results obtained using healthy donor sera. […] OppA2 (191-225) and OppA2 (381-400) were detected by only 2.2% and 6.7%, respectively, of the healthy donor samples.

[1] = Control sera, Healthy blood donors
[2] = Lyme Disease sera, Blood culture negative (localized)
[3] = Lyme Disease sera, Blood culture positive (disseminated)
[4] = Lyme Disease sera, EM positive (1st visit)
[5] = Lyme Disease sera, Elisa Positive

Sequence | reactivity of Lyme disease patient sera compared with sera from healthy donors (in words) | binding of antibodies present in RPR+ serum (in words) | Antibody positivity, % positive [1] [%] | Antibody positivity, N° positive/Total [1] | Antibody positivity, % positive (Control sera, RA) [%] | Antibody positivity, N° positive/Total (Control sera, RA) | Antibody positivity, % positive (Control sera, Syphilis (RPR+)) [%] | Antibody positivity, N° positive/Total (Control sera, Syphilis (RPR+)) | Antibody positivity, % positive [2] [%] | Antibody positivity, N° positive/Total [2] | Antibody positivity, % positive [3] [%] | Antibody positivity, N° positive/Total [3] | Antibody positivity, % positive [4] | Antibody positivity, N° positive/Total [4] | Antibody positivity, % positive (Lyme Disease sera, EM positive (1st visit), listed as OppA2 (276-300)) [%] | Antibody positivity, % positive [5] | Antibody positivity, N° positive/Total [5] | Antibody positivity, % positive (Lyme Disease sera, Wisconsin) | Antibody positivity, N° positive/Total (Lyme Disease sera, Wisconsin) | Antibody positivity, % positive (Lyme Disease sera, EM positive (1st visit), listed as OppA2 (286-310)) [%]
APIYIYGNSYLFRND (listed as Borrelia burgdorferi) [OppA2 (495-505)] | comparable to that of sera from healthy donors |  |  |  |  |  |  |  |  |  |  |  |  |  |  |  |  |  |  | 
SDYYSSAVNAIYFYAFNTHIKPLDN (listed as Borrelia sp.) [OppA (276-300)] |  | did not bind | 4.4 | 2/45 | 0 | 0/30 | 0 | 0/26 | 0 | 0/13 | 0 | 0/10 | (36.6) % | 34/104 | 36.6 | (22.9) % | 8/35 | (56.5) % | 26/46 | 
IYFYSFNTHIKPLDNVKIRKALTLA (listed as Borrelia sp.) [OppA (286-310)] |  | did not bind | 4.4 | 2/45 | 0 | 0/30 | 0 | 0/26 | 0 | 0/13 | 0 | 0/10 | (43.6) % | 44/104 |  | (22.9) % | 8/35 | (78.3) % | 36/46 | 43.6
